Consider four compounds from patent US20060063754A1, “Methods of treating a sleep disorder” (priority 2004, published 2006).

Structures are written as SMILES. Read-outs that look alike come from different tables or passages of the source. Some results are limits rather than exact numbers.

One data set deals with D2 receptor (Homo sapiens, UniProt P14416). The data set is described as follows: Dopamine D2 binding assay.
Data set [1] has as its target T1, human recombinant M2 muscarinic receptor expressed in CHO cells (Homo sapiens, UniProt P08172).
T1 construct: purchased PerkinElmer, Inc., Wellesley, Mass; host or cells: CHO cells
T1 sequence (P08172 1-466): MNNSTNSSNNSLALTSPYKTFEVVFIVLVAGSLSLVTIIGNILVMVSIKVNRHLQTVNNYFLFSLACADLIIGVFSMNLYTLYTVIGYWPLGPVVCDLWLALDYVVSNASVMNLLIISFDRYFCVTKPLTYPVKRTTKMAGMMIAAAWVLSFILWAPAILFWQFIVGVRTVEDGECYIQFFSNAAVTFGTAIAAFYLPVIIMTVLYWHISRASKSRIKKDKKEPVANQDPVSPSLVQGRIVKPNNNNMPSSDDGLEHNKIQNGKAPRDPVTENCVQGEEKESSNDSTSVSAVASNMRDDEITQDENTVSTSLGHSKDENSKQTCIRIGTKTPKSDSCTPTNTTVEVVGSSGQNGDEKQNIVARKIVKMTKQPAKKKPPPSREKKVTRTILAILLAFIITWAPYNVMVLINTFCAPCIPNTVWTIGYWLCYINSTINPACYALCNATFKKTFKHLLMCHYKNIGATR
The data set is described as follows: M2 muscarinic receptor binding assay.

For data set [2], the target named is T2, human recombinant M1 muscarinic receptor expressed in CHO cells (Homo sapiens, UniProt P11229).
T2 construct: purchased PerkinElmer, Inc., Wellesley, Mass; host or cells: CHO cells
T2 sequence (P11229 1-460): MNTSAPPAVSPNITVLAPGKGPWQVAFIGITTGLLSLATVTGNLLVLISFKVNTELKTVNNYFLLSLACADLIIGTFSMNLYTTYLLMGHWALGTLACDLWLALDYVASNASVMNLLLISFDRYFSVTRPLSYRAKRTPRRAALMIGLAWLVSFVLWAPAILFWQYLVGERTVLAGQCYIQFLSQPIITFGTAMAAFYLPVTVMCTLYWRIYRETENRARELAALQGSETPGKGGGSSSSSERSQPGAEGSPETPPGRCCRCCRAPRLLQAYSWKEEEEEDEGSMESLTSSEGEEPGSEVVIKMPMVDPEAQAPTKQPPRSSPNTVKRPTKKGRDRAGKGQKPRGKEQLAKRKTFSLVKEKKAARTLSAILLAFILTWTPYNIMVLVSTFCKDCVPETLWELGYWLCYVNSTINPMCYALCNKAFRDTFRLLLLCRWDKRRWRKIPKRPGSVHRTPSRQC
The data set is described as follows: M1 muscarinic receptor binding assay ([3H]-scopolamine, N-methyl chloride).

Another data set addresses alpha 1 receptor. The data set is described as follows: alpha 1 receptor binding assay. The settings on record: read-out: Ki Alpha1. Here is the method: (§1) Binding assays were performed using Compound 1 and 2 in competitive binding assays with known standards for the H1 histamine receptor, and the M1, M2, and M3 muscarinic receptors, alpha 1 and alpha 2 receptors, and D1 and D2 receptors.

A further data set has as its target hERG channel (Homo sapiens, UniProt Q12809). The data set is described as follows: hERG channel current block, whole cell patch clamp in HEK293 cells. The data set is classed as cell-based. The settings on record: HEK293 cells expressing hERG, room temperature. As to the method:
In the hERG assay, hERG channels are expressed in a human embryonic kidney cell line (HEK293) that lacks endogenous IKr. […] (See, Rampe 1997).
In one embodiment of the hERG assay, the positive control (i.e., reference compound) is terfenadine (Sigma, St. Louis Mo.), which has been shown, at a concentration of 60 nM, to block hERG current by approximately 75%. Test compounds are delivered in HEPES-buffered physiological saline (HB-PS)+0.1% dimethyl sulfoxide (DMSO). Each test compound is applied at a concentration of 10 μM to the HEK293 cells expressing hERG (n≧3, where n=the number of cells). Cells are exposed to the test compound for the time necessary to reach steady-state block, but not longer than 10 minutes. The positive control ([…] terfenadine) is applied to two cells (n≧2).
The hERG-exposed cells are then transferred to the recording chamber and superfused with HB-PS solution. The pipette solution for whole cell recordings includes potassium aspartate (130 mM), MgCl2 (5 mM), EGTA (5 mM), ATP (4 mM), and HEPES (10 mM) at a pH adjusted to 7.2 with KOH. Onset and steady state block of hERG current due to the test compound are measured using a pulse pattern with fixed amplitudes (depolarization: +20 mV for 2 seconds; repolarization: −50 mV for 2 seconds), repeated at 10 second intervals, from a holding potential of −80 mV. Peak tail current is measured during the 2 second step to −50 mV. A steady state is maintained for at least 30 seconds before applying the test compound or positive control compound. Peak tail currents are measured until a new steady state is achieved.
The in vitro effects of the disclosed sleep-inducing agents on the hERG (human ether-à-go-go-related gene) channel current (IKr, the rapidly activating, delayed rectifier cardiac potassium current) were determined by ChanTest (Cleveland, Ohio) according to Standard Operating Procedures of ChanTest.
All chemicals used were purchased from Sigma (St. Louis, Mo.) unless otherwise noted and were of ACS reagent grade purity or higher. […]
On the technique in general: Block of hERG is tested as a sign of cardiac risk.

The next data set deals with male Wistar rats. The data set is described as follows: Sleep-wakefulness monitoring (SCORE-2000, EEG/EMG) in rats. The data set is classed as in vivo, rat. The following applies: oral bolus at CT-18, male Wistar rats. Here is the method: Sleep-wakefulness, locomotor activity and body temperature are monitored in male Wistar rats treated with a test compound initially at a concentration of 10 mg/kg. Higher and lower doses are assayed for select compounds (e.g., as high as 45 mg/kg, and as low as necessary to establish a no-effect dose). Treatments are administered at CT-18, the peak of the activity dominated period (6 hours after lights-off), and produce soporific (sleep-inducing) effects characterized by increased non-REM sleep time, increased sleep continuity, but without evidence of REM sleep inhibition or rebound insomnia.
Sleep-wakefulness, locomotor activity and body temperature were monitored in vivo with certain of the disclosed sleep-inducing agents (e.g., Compounds 1 and 2) and other compounds described herein. Adult, male Wistar rats (250 g at time of surgery, Charles River Laboratories, Wilmington Mass.) were anesthetized (2% isoflourane in medical grade oxygen) and surgically prepared with a cranial implant to permit chronic electro-encephalogram (EEG) and electromyogram (EMG) recording. Body temperature and locomotor activity were monitored via a miniature transmitter (Mini-Mitter, Bend, Oreg.) surgically placed in the abdomen. The cranial implant consisted of stainless steel screws (two frontal (+3.2 AP from bregma, ±2.0 ML) and two occipital (−6.9 AP, ±5.5 ML)) for EEG recording. Two Teflon®-coated stainless steel wires were positioned under the nuchal trapezoid muscles for EMG recording. All leads were soldered to a miniature connector prior to surgery, and gas sterilized in ethylene oxide. The implant assembly was affixed to the skull with dental acrylic. A minimum of three weeks was allowed for surgical recovery.
Each rat was permanently housed in its own individual recording cage located within separate, ventilated compartments of custom-designed stainless steel cabinets. Each cage was enhanced with a filter-top riser and low-torque swivel-commutator. Food and water were available ad libitum. A 24-hr light-dark cycle (12 hours light, 12 hours dark) was maintained throughout the study. Animals were undisturbed for at least 48 hours before and after treatments.
Sleep and wakefulness were determined using “SCORE-2000™” (Hypnion, Worcester, Mass.)—an internet-based sleep-wake and physiological monitoring system. The system monitored amplified EEG (bandpass 1-30 Hz), integrated EMG (bandpass 10-100 Hz), body temperature and non-specific locomotor activity (LMA) via telemetry, and drinking activity, continuously and simultaneously. Arousal states were classified on-line as non-REM (NREM) sleep, REM sleep, wake, or theta-dominated wake every 10 seconds. Total drinking and locomotor activity counts, and body temperature were quantitated and recorded each minute, using EEG feature extraction and pattern-matching algorithms. […] The classification algorithm used individually-taught EEG-arousal-state templates, plus EMG criteria to differentiate REM sleep from theta-dominated wakefulness, plus behavior-dependent contextual rules (e.g., if the animal was drinking, it is awake). Drinking and locomotor activity intensity (LMA) were recorded every 10 seconds, while body temperature was recorded each minute. Locomotor activity was detected by a telemetry receiver (Mini-Mitter) beneath the cage. Telemetry measures (LMA and body temperature) were not part of the scoring algorithm; thus, sleep-scoring and telemetry data were independent measures.
Compounds were administered at CT-18, the peak of the activity-dominated period, sufficient time was allowed to view the time course of the treatment effect before lights-on (6 hours post-treatment). Compounds were suspended in sterile 0.25% or 0.5% methylcellulose (1-2 ml/kg). Treatments were administered orally as a bolus.
A parallel group study design was employed. […]

Another data set has as its target T3, H1 histamine receptor (Bos taurus, UniProt P30546).
T3 construct: the receptors were obtained from bovine cerebellar membrane tissue; from tissue; host or cells: bovine cerebellar membranes
The data set is described as follows: H1 histamine receptor competitive binding assay ([3H]pyrilamine). Set-up: species or system bovine.

The next data set concerns the target alpha 2 receptor. Nature of the data set: alpha 2 receptor binding assay. The following applies: read-out: Ki Alpha2. Here is the method:
as §1

Data set [3] addresses T4, human recombinant M3 muscarinic receptor expressed in CHO cells (Homo sapiens, UniProt P20309).
T4 construct: purchased PerkinElmer, Inc., Wellesley, Mass; host or cells: CHO cells
Nature of the data set: M3 muscarinic receptor binding assay.

Data set [4] deals with Dopamine, D1 (human recombinant) (Homo sapiens, UniProt P21728). Nature of the data set: Dopamine D1 binding assay. As to the method: Dopamine, D1 (human recombinant) binding assay was performed according to published procedures. See, e.g., Jarvie, et al. J. Recept Res., 13(1-4): 573-90 (1993); and Billard, et al. Life Sciences, 35(18): 1885-93 (1984), with modifications

The target in data set [5] is T2, human recombinant M1 muscarinic receptor expressed in CHO cells. The following applies: reference compounds; read-out: Ki of reference compounds in M1 binding assay; cited from earlier work.

hERG channel, sequence (Q12809 whole entry): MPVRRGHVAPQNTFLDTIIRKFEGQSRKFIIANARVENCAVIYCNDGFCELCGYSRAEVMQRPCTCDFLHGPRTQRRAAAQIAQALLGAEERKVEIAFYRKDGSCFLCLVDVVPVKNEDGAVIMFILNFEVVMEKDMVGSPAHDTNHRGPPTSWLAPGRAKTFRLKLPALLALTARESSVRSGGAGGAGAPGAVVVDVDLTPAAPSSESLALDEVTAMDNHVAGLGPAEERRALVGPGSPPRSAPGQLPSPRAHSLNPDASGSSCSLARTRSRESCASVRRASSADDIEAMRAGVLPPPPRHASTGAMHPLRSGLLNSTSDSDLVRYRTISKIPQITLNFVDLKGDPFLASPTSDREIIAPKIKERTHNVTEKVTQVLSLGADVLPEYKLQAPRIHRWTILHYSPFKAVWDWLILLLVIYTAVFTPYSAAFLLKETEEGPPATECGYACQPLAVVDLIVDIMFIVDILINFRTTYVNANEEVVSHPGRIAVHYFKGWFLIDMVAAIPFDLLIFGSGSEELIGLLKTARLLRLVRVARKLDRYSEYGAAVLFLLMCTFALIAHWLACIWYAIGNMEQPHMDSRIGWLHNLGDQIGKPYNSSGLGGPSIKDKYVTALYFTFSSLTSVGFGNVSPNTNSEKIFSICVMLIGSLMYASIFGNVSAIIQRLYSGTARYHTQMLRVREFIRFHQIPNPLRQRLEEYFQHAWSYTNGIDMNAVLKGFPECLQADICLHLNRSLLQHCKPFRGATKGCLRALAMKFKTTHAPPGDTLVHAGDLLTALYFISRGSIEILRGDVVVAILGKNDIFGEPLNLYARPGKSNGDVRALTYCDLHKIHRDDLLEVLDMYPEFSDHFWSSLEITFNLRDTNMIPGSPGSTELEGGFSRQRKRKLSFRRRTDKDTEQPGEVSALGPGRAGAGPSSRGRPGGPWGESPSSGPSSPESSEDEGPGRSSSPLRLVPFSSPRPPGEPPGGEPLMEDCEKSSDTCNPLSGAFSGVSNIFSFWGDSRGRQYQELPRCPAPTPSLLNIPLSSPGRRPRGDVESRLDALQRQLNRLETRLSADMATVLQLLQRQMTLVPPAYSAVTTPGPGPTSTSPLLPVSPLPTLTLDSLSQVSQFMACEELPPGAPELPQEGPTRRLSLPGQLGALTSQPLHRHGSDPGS
T3 sequence (P30546 whole entry): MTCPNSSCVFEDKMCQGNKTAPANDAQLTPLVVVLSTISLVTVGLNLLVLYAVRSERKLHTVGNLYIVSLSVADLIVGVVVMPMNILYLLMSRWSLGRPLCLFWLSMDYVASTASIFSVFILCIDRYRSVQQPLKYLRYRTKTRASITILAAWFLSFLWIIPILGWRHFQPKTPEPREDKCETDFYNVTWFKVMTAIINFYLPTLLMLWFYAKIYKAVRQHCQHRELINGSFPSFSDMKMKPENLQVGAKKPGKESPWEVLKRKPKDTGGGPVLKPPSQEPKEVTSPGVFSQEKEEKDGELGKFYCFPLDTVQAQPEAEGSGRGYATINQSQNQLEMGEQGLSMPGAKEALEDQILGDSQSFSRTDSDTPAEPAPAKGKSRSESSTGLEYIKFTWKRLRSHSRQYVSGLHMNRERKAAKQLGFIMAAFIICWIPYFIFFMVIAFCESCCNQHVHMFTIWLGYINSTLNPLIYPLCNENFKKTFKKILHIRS
Dopamine, D1 (human recombinant), sequence (P21728 whole entry): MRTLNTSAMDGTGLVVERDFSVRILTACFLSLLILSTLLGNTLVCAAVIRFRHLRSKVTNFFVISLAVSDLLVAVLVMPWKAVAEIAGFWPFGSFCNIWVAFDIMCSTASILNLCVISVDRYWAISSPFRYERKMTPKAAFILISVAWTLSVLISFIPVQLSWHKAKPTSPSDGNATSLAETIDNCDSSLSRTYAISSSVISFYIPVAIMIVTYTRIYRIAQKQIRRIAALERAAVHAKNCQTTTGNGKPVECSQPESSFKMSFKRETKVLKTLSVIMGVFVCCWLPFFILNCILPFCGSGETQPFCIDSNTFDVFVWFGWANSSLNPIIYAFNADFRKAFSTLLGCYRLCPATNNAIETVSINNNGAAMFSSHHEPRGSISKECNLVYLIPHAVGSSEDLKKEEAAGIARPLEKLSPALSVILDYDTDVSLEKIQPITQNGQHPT
T4 sequence (P20309 whole entry): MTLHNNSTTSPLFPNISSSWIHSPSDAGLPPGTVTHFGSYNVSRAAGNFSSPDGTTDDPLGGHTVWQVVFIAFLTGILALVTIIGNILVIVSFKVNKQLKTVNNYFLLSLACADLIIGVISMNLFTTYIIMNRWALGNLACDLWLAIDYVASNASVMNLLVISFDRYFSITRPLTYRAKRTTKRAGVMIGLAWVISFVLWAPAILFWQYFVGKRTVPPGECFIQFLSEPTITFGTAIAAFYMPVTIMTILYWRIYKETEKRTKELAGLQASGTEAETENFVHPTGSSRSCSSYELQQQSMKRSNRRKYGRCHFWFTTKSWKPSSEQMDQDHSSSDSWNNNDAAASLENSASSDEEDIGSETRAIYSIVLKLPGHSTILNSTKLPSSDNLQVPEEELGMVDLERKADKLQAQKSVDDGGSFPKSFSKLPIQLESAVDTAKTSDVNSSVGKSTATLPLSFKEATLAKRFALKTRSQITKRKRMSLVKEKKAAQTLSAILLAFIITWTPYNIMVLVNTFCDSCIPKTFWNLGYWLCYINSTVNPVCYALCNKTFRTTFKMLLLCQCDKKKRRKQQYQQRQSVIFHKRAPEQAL
D2 receptor, sequence (P14416 whole entry): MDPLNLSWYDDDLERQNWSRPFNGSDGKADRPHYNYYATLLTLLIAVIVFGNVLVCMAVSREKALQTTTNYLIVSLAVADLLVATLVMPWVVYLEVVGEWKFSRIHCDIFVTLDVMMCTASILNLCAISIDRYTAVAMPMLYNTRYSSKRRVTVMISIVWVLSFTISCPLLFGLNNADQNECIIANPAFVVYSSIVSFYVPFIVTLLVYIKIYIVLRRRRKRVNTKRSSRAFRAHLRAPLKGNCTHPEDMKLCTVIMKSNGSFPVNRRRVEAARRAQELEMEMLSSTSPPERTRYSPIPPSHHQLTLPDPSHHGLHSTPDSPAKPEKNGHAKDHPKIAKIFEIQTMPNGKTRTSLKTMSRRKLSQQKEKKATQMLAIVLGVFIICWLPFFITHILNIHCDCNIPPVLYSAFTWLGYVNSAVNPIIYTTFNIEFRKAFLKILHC

Turning to `O=C(O)CCCN1CCN(C2=Nc3ccccc3Oc3ccccc32)CC1` [Compound 2], the inhibitory constant (Ki) at D2 receptor was greater than 10 µM; in [1], greater than 10 µM; in data set [2], greater than 10 µM; on alpha 1 receptor it was 3.27 µM; at H1 histamine receptor, 0.0542 µM; on alpha 2 receptor, greater than 10 µM. The values for the inhibition constant (Ki) in data set [3] and in [4] were greater than 10 µM and 6.24 µM, respectively. In addition, on hERG channel, the “hERG at 10 micromolar (% blocking of the hERG channel)” value stood at 2.60%. Besides, the figures for the “LUSB (longest uninterrupted sleep bout)” value in the data set with male Wistar rats (dose 3 mg/kg) and with male Wistar rats (dose 10 mg/kg) were 3.8 ± 2.2 min and 7.2 ± 2.0 min, respectively. The compound also registered an NREM with male Wistar rats (dose 10 mg/kg) of 38 ± 6 min.
As for `C[N+]1(C)CCC(OC(=O)C(c2ccccc2)c2ccccc2)CC1` [4-DAMP methiodide], the Ki in [5] is 0.00027 µM.
Consider `O=C(O)CCN1CCN(C2=Nc3ccccc3Sc3ccccc32)CC1` [Compound 3], for which the “hERG at 10 micromolar (% blocking of the hERG channel)” value at hERG channel was determined as 0.80%. Also, the “LUSB (longest uninterrupted sleep bout)” value with male Wistar rats (dose 3 mg/kg) was found to be 6 ± 1.9 min. Further, in the data set on male Wistar rats (dose 10 mg/kg), the “LUSB (longest uninterrupted sleep bout)” value worked out at 5 ± 2.0 min and the NREM was determined as 43 ± 6 min.
For the compound `O=C(O)CCN1CCN(C2=Nc3ccccc3Oc3ccccc32)CC1` [Compound 1], the Ki is greater than 10 µM at D2 receptor; greater than 10 µM in data set [1]; greater than 10 µM in data set [2]; greater than 10 µM on alpha 1 receptor; 0.041 µM at H1 histamine receptor; greater than 10 µM on alpha 2 receptor. The inhibitory constant (Ki) in [3] was greater than 10 µM; in [4] it was 1.13 µM. Also, the “hERG at 10 micromolar (% blocking of the hERG channel)” value at hERG channel was 0.70%. Also, in the data set on male Wistar rats (dose 10 mg/kg), the “LUSB (longest uninterrupted sleep bout)” value turned out to be 13.2 ± 3.3 min. In the data set on male Wistar rats (dose 10 mg/kg), the NREM came out at 22 ± 6 min.

By Ki is commonly meant the equilibrium dissociation constant of an inhibitor or competing ligand from its target.
